In publication PMC4823954, “From fighting depression to conquering tumors: a novel tricyclic thiazepine compound as a tubulin polymerization inhibitor” (Cell Death & Disease, 2016):

Tests used:
Assay in all cases: KINOMEscan
Assay type in all cases: binding
Conditions in all cases: read-out: % Ctrl
[1] = target: T1, ASK2 (Homo sapiens, UniProt O95382)
T1 construct: purchased DiscoveRx KINOMEscan
In short: (§1)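 Competition binding panel of 442 non-mutant kinases: test compound at 5 and 10 μM competed with an active-site-directed ligand for 1 h with shaking. Bound kinase was eluted with 0.5 μM ligand and quantified by qPCR; %Ctrl = (compound − positive control)/(DMSO − positive control) × 100, lower meaning tighter binding.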

[2] = target: T2, RET (Homo sapiens, UniProt P07949)
T2 construct: purchased DiscoveRx KINOMEscan
In short: as §1

[3] = target: T3, MTOR (Homo sapiens, UniProt P42345)
T3 construct: purchased DiscoveRx KINOMEscan
In short: as §1

[4] = target: T4, MARK4 (Homo sapiens, UniProt Q96L34)
T4 construct: purchased DiscoveRx KINOMEscan
In short: as §1

[5] = target: T5, CSNK1G1 (Homo sapiens, UniProt Q9HCP0)
T5 construct: purchased DiscoveRx KINOMEscan
In short: as §1

[6] = target: T6, CAMK1 (Homo sapiens, UniProt Q14012)
T6 construct: purchased DiscoveRx KINOMEscan
In short: as §1

[7] = target: T7, HIPK4 (Homo sapiens, UniProt Q8NE63)
T7 construct: purchased DiscoveRx KINOMEscan
In short: as §1

[8] = target: T8, TYK2(JH2domain-pseudokinase) (Homo sapiens, UniProt P29597)
T8 construct: TYK2(JH2domain-pseudokinase); purchased DiscoveRx KINOMEscan
In short: as §1

[9] = target: T9, PIK3CA(H1047L) (Homo sapiens, UniProt P42336, H1047L)
T9 construct: purchased DiscoveRx KINOMEscan

[10] = target: T10, AURKB (Homo sapiens, UniProt Q96GD4)
T10 construct: purchased DiscoveRx KINOMEscan
In short: as §1

[11] = target: T11, PIM2 (Homo sapiens, UniProt Q9P1W9)
T11 construct: purchased DiscoveRx KINOMEscan
In short: as §1

[12] = target: T12, EGFR (Homo sapiens, UniProt P00533)
T12 construct: purchased DiscoveRx KINOMEscan
In short: as §1

[13] = target: T13, PLK4 (Homo sapiens, UniProt O00444)
T13 construct: purchased DiscoveRx KINOMEscan
In short: as §1

[14] = target: T14, SRPK3 (Homo sapiens, UniProt Q9UPE1)
T14 construct: purchased DiscoveRx KINOMEscan
In short: as §1

[15] = target: T15, PHKG2 (Homo sapiens, UniProt P15735)
T15 construct: purchased DiscoveRx KINOMEscan
In short: as §1

[16] = target: T16, NEK5 (Homo sapiens, UniProt Q6P3R8)
T16 construct: purchased DiscoveRx KINOMEscan
In short: as §1

[17] = target: T17, RSK4(Kin.Dom.2-C-terminal) (Homo sapiens, UniProt Q9UK32)
T17 construct: RSK4(Kin.Dom.2-C-terminal); purchased DiscoveRx KINOMEscan
In short: as §1

[18] = target: T18, PDGFRA (Homo sapiens, UniProt P16234)
T18 construct: purchased DiscoveRx KINOMEscan
In short: as §1

[19] = target: T19, KIT (Homo sapiens, UniProt P10721)
T19 construct: purchased DiscoveRx KINOMEscan
In short: as §1

[20] = target: T20, BMX (Homo sapiens, UniProt P51813)
T20 construct: purchased DiscoveRx KINOMEscan
In short: as §1

[21] = target: T21, MYO3A (Homo sapiens, UniProt Q8NEV4)
T21 construct: purchased DiscoveRx KINOMEscan
In short: as §1

[22] = target: T22, FLT3 (Homo sapiens, UniProt P36888)
T22 construct: purchased DiscoveRx KINOMEscan
In short: as §1

[23] = target: T23, SRC (Homo sapiens, UniProt P12931)
T23 construct: purchased DiscoveRx KINOMEscan
In short: as §1

[24] = target: T24, PDGFRB (Homo sapiens, UniProt P09619)
T24 construct: purchased DiscoveRx KINOMEscan
In short: as §1

[25] = target: T25, TGFBR2 (Homo sapiens, UniProt P37173)
T25 construct: purchased DiscoveRx KINOMEscan
In short: as §1

[26] = target: T26, ACVRL1 (Homo sapiens, UniProt P37023)
T26 construct: purchased DiscoveRx KINOMEscan
In short: as §1

[27] = target: T27, MYLK (Homo sapiens, UniProt Q15746)
T27 construct: purchased DiscoveRx KINOMEscan
In short: as §1

[28] = target: T28, ERK2 (Homo sapiens, UniProt P28482)
T28 construct: purchased DiscoveRx KINOMEscan
In short: as §1

[29] = target: T29, ADCK3 (Homo sapiens, UniProt Q8NI60)
T29 construct: purchased DiscoveRx KINOMEscan
In short: as §1

[30] = target: T30, BMPR1A (Homo sapiens, UniProt P36894)
T30 construct: purchased DiscoveRx KINOMEscan
In short: as §1

T27 sequence (Q15746 whole entry): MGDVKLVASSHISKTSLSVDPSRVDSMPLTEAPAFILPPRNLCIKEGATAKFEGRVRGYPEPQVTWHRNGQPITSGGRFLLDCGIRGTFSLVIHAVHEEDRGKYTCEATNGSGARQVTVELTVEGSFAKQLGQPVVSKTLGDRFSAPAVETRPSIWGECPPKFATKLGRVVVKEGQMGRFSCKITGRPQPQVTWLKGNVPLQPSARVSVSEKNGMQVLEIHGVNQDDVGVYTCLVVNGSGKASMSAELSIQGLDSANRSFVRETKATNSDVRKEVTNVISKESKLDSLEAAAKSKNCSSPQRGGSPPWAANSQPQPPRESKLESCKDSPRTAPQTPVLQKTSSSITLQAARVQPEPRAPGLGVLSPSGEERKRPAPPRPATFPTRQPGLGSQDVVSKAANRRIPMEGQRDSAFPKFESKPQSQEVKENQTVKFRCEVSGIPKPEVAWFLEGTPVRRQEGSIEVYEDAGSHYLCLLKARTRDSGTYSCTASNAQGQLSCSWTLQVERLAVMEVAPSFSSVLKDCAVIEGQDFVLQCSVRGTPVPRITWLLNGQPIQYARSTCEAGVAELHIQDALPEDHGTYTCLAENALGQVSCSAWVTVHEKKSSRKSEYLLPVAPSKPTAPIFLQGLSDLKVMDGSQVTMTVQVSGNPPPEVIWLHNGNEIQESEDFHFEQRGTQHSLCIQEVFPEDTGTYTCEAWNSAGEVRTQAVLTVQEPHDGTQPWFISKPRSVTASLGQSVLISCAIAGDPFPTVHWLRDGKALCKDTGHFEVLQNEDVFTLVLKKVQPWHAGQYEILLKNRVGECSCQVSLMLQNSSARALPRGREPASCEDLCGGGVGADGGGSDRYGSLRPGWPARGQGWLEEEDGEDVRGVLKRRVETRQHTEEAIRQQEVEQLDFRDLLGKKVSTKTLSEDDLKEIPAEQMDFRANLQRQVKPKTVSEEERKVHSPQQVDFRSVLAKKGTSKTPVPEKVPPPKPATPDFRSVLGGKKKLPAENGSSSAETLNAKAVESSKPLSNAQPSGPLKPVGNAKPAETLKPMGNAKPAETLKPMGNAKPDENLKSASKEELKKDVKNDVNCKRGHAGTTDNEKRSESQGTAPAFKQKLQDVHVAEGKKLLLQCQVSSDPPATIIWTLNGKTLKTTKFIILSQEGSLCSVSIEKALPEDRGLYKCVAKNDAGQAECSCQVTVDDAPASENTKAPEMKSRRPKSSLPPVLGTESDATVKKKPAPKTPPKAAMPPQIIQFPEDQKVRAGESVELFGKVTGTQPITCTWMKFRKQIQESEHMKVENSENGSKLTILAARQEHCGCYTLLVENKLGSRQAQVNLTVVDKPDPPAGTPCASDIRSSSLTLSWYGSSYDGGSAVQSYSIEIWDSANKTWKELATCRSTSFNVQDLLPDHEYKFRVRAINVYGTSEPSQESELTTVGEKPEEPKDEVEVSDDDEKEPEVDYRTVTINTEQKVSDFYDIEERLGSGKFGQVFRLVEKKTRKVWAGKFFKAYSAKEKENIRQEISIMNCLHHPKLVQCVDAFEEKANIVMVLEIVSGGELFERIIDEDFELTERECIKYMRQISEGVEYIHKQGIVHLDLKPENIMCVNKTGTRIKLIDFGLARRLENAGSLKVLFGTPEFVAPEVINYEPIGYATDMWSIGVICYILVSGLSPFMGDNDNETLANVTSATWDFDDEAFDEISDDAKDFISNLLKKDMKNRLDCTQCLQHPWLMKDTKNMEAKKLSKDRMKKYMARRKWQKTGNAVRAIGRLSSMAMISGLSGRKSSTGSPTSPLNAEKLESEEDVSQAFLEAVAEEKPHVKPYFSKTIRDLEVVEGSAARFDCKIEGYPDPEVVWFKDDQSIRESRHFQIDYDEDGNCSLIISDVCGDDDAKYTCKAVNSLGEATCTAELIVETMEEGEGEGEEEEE
T8 sequence (P29597 556-888 limits assumed): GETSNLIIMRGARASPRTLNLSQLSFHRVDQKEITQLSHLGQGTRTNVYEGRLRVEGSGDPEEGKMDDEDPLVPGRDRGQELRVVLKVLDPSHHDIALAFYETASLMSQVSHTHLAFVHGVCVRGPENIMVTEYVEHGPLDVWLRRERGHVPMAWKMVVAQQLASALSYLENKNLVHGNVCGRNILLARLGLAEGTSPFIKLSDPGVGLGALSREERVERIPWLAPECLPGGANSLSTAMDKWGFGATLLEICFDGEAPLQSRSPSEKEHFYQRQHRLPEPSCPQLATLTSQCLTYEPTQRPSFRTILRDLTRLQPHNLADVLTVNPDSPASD
T17 sequence (Q9UK32 401-745 limits assumed): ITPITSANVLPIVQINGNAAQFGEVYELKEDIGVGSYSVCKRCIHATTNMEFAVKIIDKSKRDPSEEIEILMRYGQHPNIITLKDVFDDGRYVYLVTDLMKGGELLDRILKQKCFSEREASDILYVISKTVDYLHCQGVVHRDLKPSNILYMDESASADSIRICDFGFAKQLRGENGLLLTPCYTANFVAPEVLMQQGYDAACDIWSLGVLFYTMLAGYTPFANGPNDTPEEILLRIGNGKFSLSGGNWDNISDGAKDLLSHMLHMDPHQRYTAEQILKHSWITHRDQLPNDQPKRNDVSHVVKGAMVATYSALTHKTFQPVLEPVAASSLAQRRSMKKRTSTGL
T28 sequence (P28482 whole entry): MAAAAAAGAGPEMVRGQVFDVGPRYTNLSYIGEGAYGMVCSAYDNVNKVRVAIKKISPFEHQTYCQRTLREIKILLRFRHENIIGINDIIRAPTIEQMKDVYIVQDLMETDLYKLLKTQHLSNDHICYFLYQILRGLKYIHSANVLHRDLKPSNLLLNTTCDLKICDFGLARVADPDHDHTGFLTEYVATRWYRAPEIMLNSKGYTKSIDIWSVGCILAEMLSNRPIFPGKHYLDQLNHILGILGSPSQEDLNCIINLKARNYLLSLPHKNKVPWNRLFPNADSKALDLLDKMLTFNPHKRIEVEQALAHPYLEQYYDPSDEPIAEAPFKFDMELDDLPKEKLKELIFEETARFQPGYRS
T7 sequence (Q8NE63 whole entry): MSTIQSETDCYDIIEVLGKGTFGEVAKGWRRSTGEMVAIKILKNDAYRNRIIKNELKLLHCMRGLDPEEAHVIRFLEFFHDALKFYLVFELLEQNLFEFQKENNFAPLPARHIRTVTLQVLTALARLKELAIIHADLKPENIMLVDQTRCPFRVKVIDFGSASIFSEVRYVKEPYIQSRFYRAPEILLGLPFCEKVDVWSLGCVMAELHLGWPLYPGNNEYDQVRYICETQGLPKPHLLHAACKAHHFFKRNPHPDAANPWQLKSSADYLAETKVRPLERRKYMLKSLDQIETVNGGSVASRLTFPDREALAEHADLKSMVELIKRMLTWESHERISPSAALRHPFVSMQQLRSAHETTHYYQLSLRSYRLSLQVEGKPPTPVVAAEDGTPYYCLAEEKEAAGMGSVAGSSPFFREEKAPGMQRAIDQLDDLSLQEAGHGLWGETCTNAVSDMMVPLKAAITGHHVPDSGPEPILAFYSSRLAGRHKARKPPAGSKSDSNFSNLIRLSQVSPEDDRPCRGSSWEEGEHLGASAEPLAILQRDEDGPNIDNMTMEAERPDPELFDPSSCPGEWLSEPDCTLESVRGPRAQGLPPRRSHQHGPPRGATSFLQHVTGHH
T11 sequence (Q9P1W9 whole entry): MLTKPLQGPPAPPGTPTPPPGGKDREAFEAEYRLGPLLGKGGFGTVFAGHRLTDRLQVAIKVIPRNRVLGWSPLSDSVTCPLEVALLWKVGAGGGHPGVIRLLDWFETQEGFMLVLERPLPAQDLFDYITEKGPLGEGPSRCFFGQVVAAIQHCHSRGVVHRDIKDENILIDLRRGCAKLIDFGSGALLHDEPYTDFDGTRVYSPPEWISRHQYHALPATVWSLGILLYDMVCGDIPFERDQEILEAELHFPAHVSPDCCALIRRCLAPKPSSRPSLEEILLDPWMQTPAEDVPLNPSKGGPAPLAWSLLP
T9 sequence (P42336 whole entry H1047L): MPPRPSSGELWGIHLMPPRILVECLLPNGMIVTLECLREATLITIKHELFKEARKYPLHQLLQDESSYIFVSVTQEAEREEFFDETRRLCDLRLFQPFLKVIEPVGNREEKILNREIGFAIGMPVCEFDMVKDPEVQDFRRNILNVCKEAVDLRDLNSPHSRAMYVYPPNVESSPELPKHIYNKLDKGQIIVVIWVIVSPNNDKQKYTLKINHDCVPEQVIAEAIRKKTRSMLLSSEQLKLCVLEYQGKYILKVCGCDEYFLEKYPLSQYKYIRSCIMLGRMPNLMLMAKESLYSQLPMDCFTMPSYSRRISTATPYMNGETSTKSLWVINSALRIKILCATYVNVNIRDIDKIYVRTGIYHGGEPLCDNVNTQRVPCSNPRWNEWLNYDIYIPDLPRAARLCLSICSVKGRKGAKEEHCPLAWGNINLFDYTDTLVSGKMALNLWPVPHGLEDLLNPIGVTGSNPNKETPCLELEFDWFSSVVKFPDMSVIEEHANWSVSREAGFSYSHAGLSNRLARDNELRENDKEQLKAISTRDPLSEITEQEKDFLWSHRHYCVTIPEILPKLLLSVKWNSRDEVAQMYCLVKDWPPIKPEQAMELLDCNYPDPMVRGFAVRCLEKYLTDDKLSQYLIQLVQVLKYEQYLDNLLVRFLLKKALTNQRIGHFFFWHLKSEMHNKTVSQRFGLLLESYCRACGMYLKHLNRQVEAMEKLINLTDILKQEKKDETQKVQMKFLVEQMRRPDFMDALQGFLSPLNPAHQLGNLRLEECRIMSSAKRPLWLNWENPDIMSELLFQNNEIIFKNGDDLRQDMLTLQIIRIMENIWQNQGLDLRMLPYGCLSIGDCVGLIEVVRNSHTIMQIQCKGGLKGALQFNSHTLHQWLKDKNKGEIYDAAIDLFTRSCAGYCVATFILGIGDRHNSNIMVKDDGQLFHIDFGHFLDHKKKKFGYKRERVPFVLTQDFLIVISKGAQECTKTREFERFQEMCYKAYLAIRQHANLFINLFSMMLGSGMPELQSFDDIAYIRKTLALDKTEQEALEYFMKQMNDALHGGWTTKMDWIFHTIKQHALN

Work on `Cc1ccc(C2=Nc3cccnc3S(=O)(=O)c3ccccc32)cc1` [TBPT, 6-(p-tolyl)benzo[f] pyrido[2,3-b][1,4] thiazepine 11,11-dioxide] yielded a remaining binding at 5 µM ([1]; 5 μM) of 82%, a remaining binding at 10 µM ([1]; 10 μM) of 100% and a remaining binding at 5 µM ([2]; 5 μM) of 100%. For the same compound, the remaining binding at 10 µM ([2]; 10 μM) was 87%, the remaining binding at 5 µM ([3]; 5 μM) was 100% and the remaining binding at 10 µM ([3]; 10 μM) was 95%. For the same compound, the remaining binding at 5 µM ([4]; 5 μM) was 81%, the remaining binding at 10 µM ([4]; 10 μM) was 100% and the remaining binding at 5 µM ([5]; 5 μM) was 100%. The remaining binding at 10 µM ([5]; 10 μM) was 89%, the remaining binding at 5 µM ([6]; 5 μM) was 96% and the remaining binding at 10 µM ([6]; 10 μM) was 98%. It also gave a remaining binding at 5 µM ([7]; 5 μM) of 91%, a remaining binding at 10 µM ([7]; 10 μM) of 100% and a remaining binding at 5 µM ([8]; 5 μM) of 82%. It also gave a remaining binding at 10 µM ([8]; 10 μM) of 100%, a remaining binding at 5 µM ([9]; 5 μM) of 100% and a remaining binding at 10 µM ([9]; 10 μM) of 100%. It also gave a remaining binding at 5 µM ([10]; 5 μM) of 98%, a remaining binding at 10 µM ([10]; 10 μM) of 92% and a remaining binding at 5 µM ([11]; 5 μM) of 100%. For the same compound, the remaining binding at 10 µM ([11]; 10 μM) was 100%, the remaining binding at 5 µM ([12]; 5 μM) was 100% and the remaining binding at 10 µM ([12]; 10 μM) was 91%. The remaining binding at 5 µM ([13]; 5 μM) was 100%, the remaining binding at 10 µM ([13]; 10 μM) was 92% and the remaining binding at 5 µM ([14]; 5 μM) was 100%. The remaining binding at 10 µM ([14]; 10 μM) was 89%, the remaining binding at 5 µM ([15]; 5 μM) was 100% and the remaining binding at 10 µM ([15]; 10 μM) was 100%. It also gave a remaining binding at 5 µM ([16]; 5 μM) of 100%, a remaining binding at 10 µM ([16]; 10 μM) of 100% and a remaining binding at 5 µM ([17]; 5 μM) of 94%. For the same compound, the remaining binding at 10 µM ([17]; 10 μM) was 57%, the remaining binding at 5 µM ([18]; 5 μM) was 100% and the remaining binding at 10 µM ([18]; 10 μM) was 100%. The remaining binding at 5 µM ([19]; 5 μM) was 72%, the remaining binding at 10 µM ([19]; 10 μM) was 100% and the remaining binding at 5 µM ([20]; 5 μM) was 92%. For the same compound, the remaining binding at 10 µM ([20]; 10 μM) was 93%, the remaining binding at 5 µM ([21]; 5 μM) was 100% and the remaining binding at 10 µM ([21]; 10 μM) was 90%. For the same compound, the remaining binding at 5 µM ([22]; 5 μM) was 100%, the remaining binding at 10 µM ([22]; 10 μM) was 68% and the remaining binding at 5 µM ([23]; 5 μM) was 87%. The remaining binding at 10 µM ([23]; 10 μM) was 100%, the remaining binding at 5 µM ([24]; 5 μM) was 68% and the remaining binding at 10 µM ([24]; 10 μM) was 100%. For the same compound, the remaining binding at 5 µM ([25]; 5 μM) was 100%, the remaining binding at 10 µM ([25]; 10 μM) was 81% and the remaining binding at 5 µM ([26]; 5 μM) was 100%. It also gave a remaining binding at 10 µM ([26]; 10 μM) of 71%, a remaining binding at 5 µM ([27]; 5 μM) of 100% and a remaining binding at 10 µM ([27]; 10 μM) of 81%. It also gave a remaining binding at 5 µM ([28]; 5 μM) of 76%, a remaining binding at 10 µM ([28]; 10 μM) of 92% and a remaining binding at 5 µM ([29]; 5 μM) of 98%. For the same compound, the remaining binding at 10 µM ([29]; 10 μM) was 100%, the remaining binding at 5 µM ([30]; 5 μM) was 97% and the remaining binding at 10 µM ([30]; 10 μM) was 80%.
